This test has as its target T1, ΔF508-CFTR (Homo sapiens, UniProt P13569, DEL508-508).
T1 construct: expressed in transfected cells; host or cells: NIH3T3 mouse fibroblasts stably expressing ΔF508-CFTR for the optical, whole-cell and single-channel assays; Fisher rat epithelial (FRT) cells for Ussing chamber follow-up
The test is described as follows: Assays for ΔF508-CFTR correction and potentiator properties (membrane potential optical and electrophysiological methods). Type of test: cell-based. The following applies: CFTR modulation; for % Activity: % Efficacy; for EC50: tested using the above methods. The gist of the method:
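NIH3T3 mouse fibroblasts stably expressing ΔF508-CFTR were used, with membrane potential read by DiSBAC2(3)/CC2-DMPE FRET on VIPR. Correctors: 16 h compound exposure at 37 °C, then activation with forskolin plus genistein in Cl⁻-free medium. Potentiators: cells held 24 h at 27 °C, compound added in Cl⁻-free medium, 2-10 μM forskolin 22 s later (final Cl⁻ 28 mM).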

T1 sequence (P13569 with tags, fused parts or gaps DEL508-508): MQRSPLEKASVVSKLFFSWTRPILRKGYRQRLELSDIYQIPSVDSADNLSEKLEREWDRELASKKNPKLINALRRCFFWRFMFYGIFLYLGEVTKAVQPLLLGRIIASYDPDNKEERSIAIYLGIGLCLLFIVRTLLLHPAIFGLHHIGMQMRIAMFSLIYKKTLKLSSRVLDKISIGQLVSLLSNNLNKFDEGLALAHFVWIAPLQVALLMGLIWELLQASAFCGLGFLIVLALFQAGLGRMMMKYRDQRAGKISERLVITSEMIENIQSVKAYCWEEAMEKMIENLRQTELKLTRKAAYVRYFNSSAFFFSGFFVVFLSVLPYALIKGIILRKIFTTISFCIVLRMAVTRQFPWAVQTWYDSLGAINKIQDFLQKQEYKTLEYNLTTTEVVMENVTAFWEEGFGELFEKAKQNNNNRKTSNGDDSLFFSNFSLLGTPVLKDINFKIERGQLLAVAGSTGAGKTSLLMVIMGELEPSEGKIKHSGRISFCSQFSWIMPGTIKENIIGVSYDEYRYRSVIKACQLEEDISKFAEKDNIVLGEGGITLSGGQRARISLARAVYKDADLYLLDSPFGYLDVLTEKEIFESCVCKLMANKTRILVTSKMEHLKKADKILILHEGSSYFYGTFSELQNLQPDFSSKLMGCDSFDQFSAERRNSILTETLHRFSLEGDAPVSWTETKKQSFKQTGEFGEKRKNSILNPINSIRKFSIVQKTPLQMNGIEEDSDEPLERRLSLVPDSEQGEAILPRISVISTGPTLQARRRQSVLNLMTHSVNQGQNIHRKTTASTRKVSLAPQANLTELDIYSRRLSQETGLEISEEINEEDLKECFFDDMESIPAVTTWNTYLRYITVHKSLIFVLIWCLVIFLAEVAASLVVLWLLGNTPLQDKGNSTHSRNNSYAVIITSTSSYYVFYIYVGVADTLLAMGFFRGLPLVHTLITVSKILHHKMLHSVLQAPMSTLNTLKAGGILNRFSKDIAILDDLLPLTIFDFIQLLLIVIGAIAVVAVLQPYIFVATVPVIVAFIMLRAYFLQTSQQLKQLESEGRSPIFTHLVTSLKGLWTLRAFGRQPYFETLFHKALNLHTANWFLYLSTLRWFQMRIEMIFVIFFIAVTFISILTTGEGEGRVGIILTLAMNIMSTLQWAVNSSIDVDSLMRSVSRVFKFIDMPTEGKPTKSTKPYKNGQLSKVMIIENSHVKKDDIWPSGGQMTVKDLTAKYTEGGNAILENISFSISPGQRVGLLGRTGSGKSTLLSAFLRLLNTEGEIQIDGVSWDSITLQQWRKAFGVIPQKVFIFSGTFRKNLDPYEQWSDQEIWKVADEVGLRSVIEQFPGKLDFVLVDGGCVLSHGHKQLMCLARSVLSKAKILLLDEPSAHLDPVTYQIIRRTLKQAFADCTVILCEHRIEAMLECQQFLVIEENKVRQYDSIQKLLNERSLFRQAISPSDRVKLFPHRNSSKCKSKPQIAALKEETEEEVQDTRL

With `COc1cccc(C(=O)Nc2nc(-c3ccccc3)c(-c3ccccc3)s2)c1` [compound 105], the “% Activity” value is “+++ (“+++” means >100%)” and the half-maximal effective concentration (EC50) was less than 10 µM.

`O=C(Nc1nc(-c2ccccc2)c(-c2ccccc2)s1)c1cccc(Cl)c1` [compound 106]: the “% Activity” value is reported as “++ (“++” means between 25% to 100%)” and the EC50 is less than 10 µM.

Turning to `O=C(Cc1ccccc1)Nc1nc(-c2ccccc2)c(-c2ccccc2)s1` [compound 107], the “% Activity” value is given as “+++ (“+++” means >100%)” and the EC50 was less than 10 µM.

As for `CCCC(=O)Nc1nc(-c2ccccc2)c(-c2ccccc2)s1` [compound 108], the “% Activity” value was “++ (“++” means between 25% to 100%)” and the EC50 was less than 10 µM.

`CC(C)C(=O)Nc1nc(-c2ccccc2)c(-c2ccccc2)s1` [compound 109]: the “% Activity” value is given as “++ (“++” means between 25% to 100%)” and the EC50 was less than 10 µM.

With `CC(C)CC(=O)Nc1nc(-c2ccccc2)c(-c2ccccc2)s1` [compound 110], the “% Activity” value was “+++ (“+++” means >100%)” and the EC50 is less than 10 µM.

For `O=C(Nc1nc(-c2ccccc2)c(-c2ccccc2)s1)C1CC1` [compound 111], the “% Activity” value is given as “+++ (“+++” means >100%)” and the EC50 was less than 10 µM.

As for `CC(C)(C)C(=O)Nc1nc(-c2ccccc2)c(-c2ccccc2)s1` [compound 112], the “% Activity” value is reported as “++ (“++” means between 25% to 100%)” and the half-maximal effective concentration (EC50) was less than 10 µM.

For `O=C(Nc1nc(-c2ccccc2)c(-c2ccccc2)s1)C1CCCC1` [compound 113], the “% Activity” value is recorded as “++ (“++” means between 25% to 100%)” and the concentration giving a half-maximal response (EC50) is less than 10 µM.

Regarding `O=C(Nc1nc(-c2ccccc2)c(-c2ccccc2)s1)C1CCCCC1` [compound 114], the “% Activity” value was “++ (“++” means between 25% to 100%)” and the EC50 was less than 10 µM.

Take `O=C(Nc1nc(-c2ccccc2)c(-c2ccccc2)s1)C1CCCO1` (stereo not drawn) [compound 115]: the “% Activity” value is listed as “+++ (“+++” means >100%)” and the EC50 was less than 10 µM.

Consider `O=C(Nc1nc(-c2ccccc2)c(-c2ccccc2)s1)C1CCOC1` (stereo not drawn) [compound 116], for which the “% Activity” value is recorded as “++ (“++” means between 25% to 100%)” and the EC50 is less than 10 µM.

For `O=C(Nc1ncc(Cc2ccc(Cl)cc2)s1)C(c1ccccc1)C1CCCCC1` (stereo not drawn) [compound 117], the “% Activity” value is on record as “+++ (“+++” means >100%)” and the EC50 is less than 10 µM.

`O=C(Nc1ncc(Cc2ccc(Cl)cc2)s1)C(c1ccc(Cl)cc1)c1ccc(Cl)cc1` [compound 118]: the “% Activity” value is given as “++ (“++” means between 25% to 100%)” and the EC50 was less than 10 µM.

Regarding `CC(C(=O)Nc1ncc(Cc2ccc(Cl)cc2)s1)c1ccccc1` (stereo not drawn) [compound 119], the “% Activity” value is on record as “+++ (“+++” means >100%)” and the concentration for a half-maximal effect (EC50) is less than 10 µM.

`CCC(C(=O)Nc1ncc(Cc2ccc(Cl)cc2)s1)c1ccccc1` (stereo not drawn) [compound 120]: the “% Activity” value is listed as “++ (“++” means between 25% to 100%)” and the EC50 was less than 10 µM.

On to `CCC(C)C(C(=O)Nc1ncc(Cc2ccc(Cl)cc2)s1)c1ccccc1` (stereo not drawn) [compound 121], for which the “% Activity” value is on record as “+++ (“+++” means >100%)” and the half-maximal effective concentration (EC50) was less than 10 µM.

In the case of `O=C(Nc1ncc(Cc2ccc(Cl)cc2)s1)C(c1ccccc1)C1CCCC1` (stereo not drawn) [compound 122], the “% Activity” value is “+++ (“+++” means >100%)” and the EC50 was less than 10 µM.

Regarding `CC(C)C(C(=O)Nc1ncc(Cc2ccc(Cl)cc2)s1)c1ccccc1` (stereo not drawn) [compound 123], the “% Activity” value is given as “+++ (“+++” means >100%)” and the EC50 is less than 10 µM.

As for `O=C(Nc1ncc(Cc2cccc(Cl)c2)s1)C(c1ccccc1)c1ccccc1` [compound 124], the “% Activity” value is “++ (“++” means between 25% to 100%)” and the EC50 was less than 10 µM.

As to `O=C(Nc1ncc(Cc2cccc(Cl)c2)s1)C(c1ccc(Cl)cc1)c1ccc(Cl)cc1` [compound 125], the “% Activity” value was “++ (“++” means between 25% to 100%)” and the EC50 is less than 10 µM.

With `O=C(Nc1ncc(Cc2cccc(Cl)c2)s1)C1Cc2ccccc21` (stereo not drawn) [compound 126], the “% Activity” value is “++ (“++” means between 25% to 100%)” and the EC50 lay in the range of 25 to 60 µM.

For `CC(C(=O)Nc1ncc(Cc2cccc(Cl)c2)s1)c1ccccc1` (stereo not drawn) [compound 127], the “% Activity” value is listed as “++ (“++” means between 25% to 100%)” and the EC50 is less than 10 µM.

On to `CCC(C(=O)Nc1ncc(Cc2cccc(Cl)c2)s1)c1ccccc1` (stereo not drawn) [compound 128], for which the “% Activity” value was “+++ (“+++” means >100%)” and the EC50 was less than 10 µM.

For `CCC(C)C(C(=O)Nc1ncc(Cc2cccc(Cl)c2)s1)c1ccccc1` (stereo not drawn) [compound 129], the “% Activity” value is “++ (“++” means between 25% to 100%)” and the 50% effective concentration (EC50) was less than 10 µM.

In the case of `CC(C)C(C(=O)Nc1ncc(Cc2cccc(Cl)c2)s1)c1ccccc1` (stereo not drawn) [compound 130], the “% Activity” value was “+++ (“+++” means >100%)” and the concentration giving a half-maximal response (EC50) was less than 10 µM.

For `O=C(Nc1ncc(Cc2cccc(Cl)c2)s1)C1c2ccccc2Oc2ccccc21` [compound 131], the “% Activity” value was “+++ (“+++” means >100%)” and the EC50 was less than 10 µM.

In the case of `COc1ccccc1Cc1cnc(NC(=O)C(c2ccccc2)C2CCCCC2)s1` (stereo not drawn) [compound 132], the “% Activity” value is “++ (“++” means between 25% to 100%)” and the EC50 is less than 10 µM.

In the case of `COc1ccccc1Cc1cnc(NC(=O)C2c3ccccc3-c3ccccc32)s1` [compound 133], the “% Activity” value was “++ (“++” means between 25% to 100%)” and the concentration giving a half-maximal response (EC50) was less than 10 µM.

Consider `COc1ccccc1Cc1cnc(NC(=O)C(c2ccc(Cl)cc2)c2ccc(Cl)cc2)s1` [compound 134], for which the “% Activity” value was “++ (“++” means between 25% to 100%)” and the EC50 is less than 10 µM.

On to `COc1ccccc1Cc1cnc(NC(=O)C(C)c2ccccc2)s1` (stereo not drawn) [compound 135], for which the “% Activity” value is listed as “++ (“++” means between 25% to 100%)” and the EC50 is less than 10 µM.

As to `CCC(C(=O)Nc1ncc(Cc2ccccc2OC)s1)c1ccccc1` (stereo not drawn) [compound 136], the “% Activity” value is “++ (“++” means between 25% to 100%)” and the EC50 is less than 10 µM.

For `CCC(C)C(C(=O)Nc1ncc(Cc2ccccc2OC)s1)c1ccccc1` (stereo not drawn) [compound 137], the “% Activity” value is “++ (“++” means between 25% to 100%)” and the EC50 is less than 10 µM.

As for `COc1ccccc1Cc1cnc(NC(=O)C(c2ccccc2)C(C)C)s1` (stereo not drawn) [compound 138], the “% Activity” value is reported as “++ (“++” means between 25% to 100%)” and the EC50 was less than 10 µM.

With `O=C(Nc1ncc(Cc2ccccc2)s1)C(c1ccccc1)C1CCCCC1` (stereo not drawn) [compound 139], the “% Activity” value is given as “++ (“++” means between 25% to 100%)” and the EC50 is less than 10 µM.

Turning to `COc1ccccc1Cc1cnc(NC(=O)C2c3ccccc3Oc3ccccc32)s1` [compound 140], the “% Activity” value was “++ (“++” means between 25% to 100%)” and the EC50 is less than 10 µM.

On to `O=C(Nc1ncc(Cc2ccccc2)o1)c1ccccc1` [compound 141], for which the “% Activity” value is given as “++ (“++” means between 25% to 100%)” and the EC50 is 10 to 25 µM.

As for `O=C(Nc1ncc(Cc2ccc(Cl)cc2)o1)C(c1ccccc1)C1CCCCC1` (stereo not drawn) [compound 142], the “% Activity” value is reported as “++ (“++” means between 25% to 100%)” and the EC50 was less than 10 µM.

With `O=C(Nc1ncc(Cc2ccc(Cl)cc2)o1)C(c1ccccc1)c1ccccc1` [compound 143], the “% Activity” value is “++ (“++” means between 25% to 100%)” and the EC50 fell in the range of 25 to 60 µM.

Regarding `O=C(Nc1ncc(Cc2ccc(Cl)cc2)o1)C1Cc2ccccc21` (stereo not drawn) [compound 145], the “% Activity” value is on record as “++ (“++” means between 25% to 100%)” and the EC50 fell in the range of 10 to 25 µM.

For the compound `CCC(C(=O)Nc1ncc(Cc2ccc(Cl)cc2)o1)c1ccccc1` (stereo not drawn) [compound 146], the “% Activity” value is on record as “++ (“++” means between 25% to 100%)” and the EC50 was less than 10 µM.

With `CCC(C)C(C(=O)Nc1ncc(Cc2ccc(Cl)cc2)o1)c1ccccc1` (stereo not drawn) [compound 147], the “% Activity” value is “++ (“++” means between 25% to 100%)” and the EC50 is less than 10 µM.

`O=C(Nc1ncc(Cc2ccc(Cl)cc2)o1)C(c1ccccc1)C1CCCC1` (stereo not drawn) [compound 148]: the “% Activity” value is “++ (“++” means between 25% to 100%)” and the EC50 was less than 10 µM.

As for `O=C(Cc1ccccc1)Nc1ncc(Cc2ccc(Cl)cc2)o1` [compound 149], the “% Activity” value is reported as “++ (“++” means between 25% to 100%)” and the EC50 lay in the range of 10 to 25 µM.

As for `O=C(Nc1ncc(Cc2ccc(Cl)cc2)o1)c1ccccc1` [compound 150], the “% Activity” value is “++ (“++” means between 25% to 100%)” and the EC50 lay in the range of 10 to 25 µM.

Consider `O=C(Nc1ncc(Cc2cccc(Cl)c2)o1)C(c1ccccc1)C1CCCCC1` (stereo not drawn) [compound 151], for which the “% Activity” value was “++ (“++” means between 25% to 100%)” and the EC50 was less than 10 µM.

`O=C(Nc1ncc(Cc2cccc(Cl)c2)o1)C1Cc2ccccc21` (stereo not drawn) [compound 152]: the “% Activity” value is listed as “++ (“++” means between 25% to 100%)” and the EC50 fell in the range of 10 to 25 µM.

Consider `CC(C(=O)Nc1ncc(Cc2cccc(Cl)c2)o1)c1ccccc1` (stereo not drawn) [compound 153], for which the “% Activity” value is “++ (“++” means between 25% to 100%)” and the EC50 is less than 10 µM.

As to `CCC(C(=O)Nc1ncc(Cc2cccc(Cl)c2)o1)c1ccccc1` (stereo not drawn) [compound 154], the “% Activity” value is “++ (“++” means between 25% to 100%)” and the EC50 was less than 10 µM.

Regarding `CCC(C)C(C(=O)Nc1ncc(Cc2cccc(Cl)c2)o1)c1ccccc1` (stereo not drawn) [compound 155], the “% Activity” value is “++ (“++” means between 25% to 100%)” and the EC50 was less than 10 µM.

In the case of `O=C(Nc1ncc(Cc2cccc(Cl)c2)o1)C(c1ccccc1)C1CCCC1` (stereo not drawn) [compound 156], the “% Activity” value is reported as “++ (“++” means between 25% to 100%)” and the EC50 is less than 10 µM.

As a reminder, the EC50 is the midpoint of the concentration-response curve.

The values above are taken from patent US9249131B2, “Modulators of ATP-binding cassette transporters” (Vertex Pharmaceuticals Incorporated, priority 2003, dated 2016).
